{"source": "paper PMC10849125", "about": "(RSC Chemical Biology, 2023)", "key": {"[1]": {"biological_target": "HR1–HR2 interaction (MBP-HR1 / ALP-HR2) of SARS-CoV-2 (Severe acute respiratory syndrome coronavirus 2, UniProt P0DTC2)", "experiment": "SPICA: inhibition of the HR1–HR2 interaction", "assay_type": "binding", "details": "for IC50: pIC50 ± SD, 20 nM MBP-HR1 coated, 5 nM ALP-HR2, MES pH 6.4, OD630, SD; for inhibition of the HR1–HR2 interaction of SARS-CoV-2 (in words): negative controls"}, "VeroE6/TMPRSS2 cells": {"system": "VeroE6/TMPRSS2 cells", "experiment": "Cytotoxicity, MTT assay", "assay_type": "cell-based, African green monkey", "details": "mock cell viability, 3 days"}}, "data": [{"smiles": "CC[C@H](C)[C@H](NC(=O)[C@H](C)NC(=O)[C@H](CCC(=O)O)NC(=O)[C@H](CCC(=O)O)NC(=O)[C@H](CC(C)C)NC(=O)[C@H](CCCCN)NC(=O)[C@H](CCCCN)NC(=O)[C@H](CCSC)NC(=O)[C@H](CCC(=O)O)NC(=O)[C@H](Cc1ccc(O)cc1)NC(=O)[C@H](CCC(=O)O)NC(=O)[C@H](CC(C)C)NC(=O)[C@H](CC(=O)O)NC(=O)[C@H](CC(C)C)NC(=O)[C@H](Cc1ccccc1)NC(=O)[C@@H](NC(=O)[C@@H](NC(=O)[C@H](CC(N)=O)NC(=O)[C@@H](NC(=O)[C@H](CCC(N)=O)NC(=O)[C@H](CC(=O)O)NC(=O)[C@H](CC(C)C)NC(=O)[C@@H](N)CO)[C@@H](C)CC)C(C)C)[C@@H](C)O)C(=O)N[C@@H](CCCCN)C(=O)N[C@@H](CCCCN)C(=O)N[C@@H](CC(C)C)C(=O)N[C@@H](CCC(=O)O)C(=O)N[C@@H](CCC(=O)O)C(=O)N[C@@H](CO)C(=O)N[C@@H](Cc1ccc(O)cc1)C(=O)N[C@H](C(=O)N[C@@H](CC(=O)O)C(=O)N[C@@H](CC(C)C)C(=O)N[C@@H](CCCCN)C(=O)N[C@@H](CCC(=O)O)C(=O)N[C@@H](CC(C)C)C(=O)O)[C@@H](C)CC", "note": "[EK1]", "values": [{"measurement": "IC50", "setting": "[1]", "value": 0.001, "unit": "µM"}]}, {"smiles": "Cc1nnnn1N=Cc1ccc(O)c(C(c2ccc(O)cc2)c2cc(C=Nn3nnnc3C)ccc2O)c1", "note": "(centres unmarked) [VP-14637]", "values": [{"measurement": "inhibition of the HR1–HR2 interaction of SARS-CoV-2 (in words)", "setting": "[1]", "value": "failed to block the HR1–HR2 interaction"}, {"measurement": "IC50", "setting": "[1]", "value": 25.1, "unit": "µM"}]}, {"smiles": "CCC(CC)COC(=O)[C@H](C)N[P@](=O)(OC[C@H]1O[C@@](C#N)(c2ccc3c(N)ncnn23)[C@H](O)[C@@H]1O)Oc1ccccc1", "note": "[remdesivir]", "values": [{"measurement": "inhibition of the HR1–HR2 interaction of SARS-CoV-2 (in words)", "setting": "[1]", "value": "no inhibitory effect"}, {"measurement": "pCC50 ± SD", "setting": "VeroE6/TMPRSS2 cells", "value": "4.2 ± 0.1"}]}]}
